Source: publication PMC8470104, “Anti-Metatype Antibody Screening, Sandwich Immunoassay Development, and Structural Insights for β-Lactams Based on Penicillin Binding Protein” (Molecules, 2021)

How the values were obtained:
[1] = system: PBP2x*-β-lactam complexes; test: sandwich immunoassay of 18 PBP2x*-β-lactam complexes (capture mAb 4H11, detection pAb #5); type: binding; conditions: 1000 ng/mL; mAb 4H11 capture, pAb #5 detection; n = 3; S/N > 1 positive detection
Description: Microtiter plates were coated with 100 μL anti-mouse IgG antibody in CB buffer and incubated at 4 °C overnight. The plates were subsequently washed and blocked with 150 μL of 2% skim milk. Then, 100 μL of diluted mAb was added to the wells and incubated for 1 h at 37 °C. After washing, 100 μL individual PBP2x* or receptor–ligand complexes of 18 β-lactams with PBP2x* that were diluted to 1 μg/mL was added. The incubation was carried out at 37 °C for 1 h, followed by another washing procedure. Then, 100 μL diluted HRP-labeled pAb was added to the wells and incubated for 1 h at 37 °C. The TMB substrate solution was added after washing, followed by the addition of 2 M H2SO4 to stop the reaction, and finally the OD values were measured at 450 nm.

[2] = biological target: PBP2x* (Streptococcus pneumoniae, UniProt P14677); test: direct competitive ELISA, binding affinity of β-lactams to PBP2x*; conditions: for IC50: IC50 (affinity to PBP2x*)
Source text: The anti-metatype antibodies that recognize the complex formed by the receptor and ligand was developed by immunization. The success of the immunization depends on the stability of the receptor–drug complex. In the present study, we hypothesized that the complex formed by PBP2x* and β-lactams with high affinity to PBP2x* would achieve higher stability, because more non-covalent bonds typically tend to form between the two. In addition, the conformational change of PBP2x* induced by the combination of the β-lactams with high affinity may be greater due to the existence of more interaction forces, which stimulate the PBP2x* to some extent. Therefore, a direct competitive ELISA was carried out to determine the affinity of 18 β-lactams to PBP2x*. […] In the cephalosporin group, CPZ, CFN, CFZ, and CFM performed poorly: affinities with IC50 were greater than 10 ng/mL, which was almost 2–50-fold that of other drugs such as CTRX, CTX, and KF. (Table 2). Therefore, for the preparation of anti-metatype antibodies, five β-lactams (including PNG, AMP, AMX, CTX, and KF) with high affinity to PBP2x* were selected to form a complex with PBP2x*.
The PBP2x* (100 μL/well) was diluted to an appropriate concentration and coated on microtiter plates, and incubated overnight at 4 °C. After the solution was poured, the plates were washed 3 times with washing buffer and patted dry. Then, 150 μL of blocking solution was added to each well, followed by 1 h of incubation at 37 °C. The β-lactam standards (50 μL), which were diluted to a series of concentrations, were added into each well, then 50 μL of the enzyme marker prepared in our previous study was added, and incubated at 37 °C for 30 min. After the washing procedure, the color was developed by adding tetramethylbenzidine (TMB) substrate. Finally, 2 M H2SO4 (50 μL/well) was used to stop the enzymatic reaction, and the optical density (OD) values of 450 nm was measured.

[3] = PBP2x* coated, enzyme marker competitor

PBP2x*, sequence (P14677 49-750): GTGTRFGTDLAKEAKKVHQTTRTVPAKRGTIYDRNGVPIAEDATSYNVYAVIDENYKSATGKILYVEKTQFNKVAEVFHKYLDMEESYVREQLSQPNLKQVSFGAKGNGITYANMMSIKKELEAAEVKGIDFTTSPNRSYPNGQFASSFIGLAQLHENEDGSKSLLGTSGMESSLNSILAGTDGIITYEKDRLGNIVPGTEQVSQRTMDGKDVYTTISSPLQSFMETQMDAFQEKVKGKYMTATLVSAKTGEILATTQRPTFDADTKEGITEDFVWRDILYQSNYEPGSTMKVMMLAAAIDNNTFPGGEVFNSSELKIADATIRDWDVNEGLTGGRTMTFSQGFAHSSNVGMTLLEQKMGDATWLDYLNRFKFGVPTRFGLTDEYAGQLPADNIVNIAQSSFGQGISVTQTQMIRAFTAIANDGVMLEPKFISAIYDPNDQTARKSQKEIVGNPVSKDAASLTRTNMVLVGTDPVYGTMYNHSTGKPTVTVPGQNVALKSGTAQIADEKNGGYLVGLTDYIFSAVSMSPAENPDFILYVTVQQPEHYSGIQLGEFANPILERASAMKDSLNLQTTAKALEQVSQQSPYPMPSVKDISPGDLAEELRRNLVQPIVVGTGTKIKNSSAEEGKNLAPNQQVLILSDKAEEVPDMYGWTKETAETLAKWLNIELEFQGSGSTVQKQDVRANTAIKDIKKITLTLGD

Compound: CC1(C)S[C@@H]2[C@H](NC(=O)[C@H](N)c3ccccc3)C(=O)N2[C@H]1C(=O)O [AMP, Ampicillin]
- Signal-to-noise ratio (S/N) of the sandwich immunoassay [1]: < 1
- affinity to PBP2x* (in words) [2]: high affinity
- IC50 [2, 3]: 22.3 nM

Compound: CC1(C)S[C@@H]2[C@H](NC(=O)[C@H](N)c3ccc(O)cc3)C(=O)N2[C@H]1C(=O)O [AMX, Amoxicillin]
- Signal-to-noise ratio (S/N) of the sandwich immunoassay [1]: < 1
- affinity to PBP2x* (in words) [2]: high affinity
- IC50 [2, 3]: 18.7 nM

Compound: CC1(C)S[C@@H]2[C@H](NC(=O)[C@H](NC(=O)N3CCNC3=O)c3ccccc3)C(=O)N2[C@H]1C(=O)O [AZL, Azlocillin]
- affinity to PBP2x* (in words) [2]: high affinity
- IC50 [2, 3]: 14.5 nM

Compound: CC(=O)OCC1=C(C(=O)O)N2C(=O)[C@@H](NC(=O)CSc3ccncc3)[C@H]2SC1 [CFAP, Cefapirin]
- IC50 [2, 3]: 14.3 nM

Compound: C=CC1=C(C(=O)O)N2C(=O)[C@@H](NC(=O)/C(=N\OCC(=O)O)c3csc(N)n3)[C@H]2SC1 [CFM, Cefixime]
- IC50 [2, 3]: 64.7 nM

Compound: NC(=O)c1cc[n+](CC2=C(C(=O)[O-])N3C(=O)[C@@H](NC(=O)Cc4cccs4)[C@H]3SC2)cc1 [CFN, Cefalonium]
- IC50 [2, 3]: 33.4 nM

Compound: CO/N=C(\C(=O)N[C@@H]1C(=O)N2C(C(=O)[O-])=C(C[N+]3(C)CCCC3)CS[C@H]12)c1csc(N)n1 [CFP, Cefepime]
- IC50 [2, 3]: 15.2 nM

Compound: CO/N=C(\C(=O)N[C@@H]1C(=O)N2C(C(=O)O)=C(CSC(=O)c3ccco3)CS[C@H]12)c1csc(N)n1 [CFT, Ceftiofur]
- IC50 [2, 3]: 5.02 nM

Compound: Cc1nnc(SCC2=C(C(=O)O)N3C(=O)[C@@H](NC(=O)Cn4cnnn4)[C@H]3SC2)s1 [CFZ, Cefazolin]
- IC50 [2, 3]: 53.6 nM

Compound: Cc1onc(-c2ccccc2Cl)c1C(=O)N[C@@H]1C(=O)N2[C@@H]1SC(C)(C)[C@@H]2C(=O)O [CLX, Cloxacillin]
- affinity to PBP2x* (in words) [2]: relatively poor affinity
- IC50 [2, 3]: 173 nM

Compound: CCN1CCN(C(=O)N[C@@H](C(=O)N[C@@H]2C(=O)N3C(C(=O)O)=C(CSc4nnnn4C)CS[C@H]23)c2ccc(O)cc2)C(=O)C1=O [CPZ, Cefoperazone]
- IC50 [2, 3]: 155 nM

Compound: CO/N=C(\C(=O)N[C@@H]1C(=O)N2C(C(=O)O)=C(CSc3nc(=O)c(=O)[nH]n3C)CS[C@H]12)c1csc(N)n1 [CTRX, Cefatriaxone]
- IC50 [2, 3]: 4.24 nM

Compound: CO/N=C(\C(=O)N[C@@H]1C(=O)N2C(C(=O)O)=C(COC(C)=O)CS[C@H]12)c1csc(N)n1 [CTX, Cefotaxime]
- affinity to PBP2x* (in words) [2]: high affinity
- IC50 [2, 3]: 10.4 nM

Compound: Cc1onc(-c2c(Cl)cccc2Cl)c1C(=O)N[C@@H]1C(=O)N2[C@@H]1SC(C)(C)[C@@H]2C(=O)O [DCX, Dicloxacillin]
- affinity to PBP2x* (in words) [2]: relatively poor affinity
- IC50 [2, 3]: 32.6 nM

Compound: CC(=O)OCC1=C(C(=O)O)N2C(=O)[C@@H](NC(=O)Cc3cccs3)[C@H]2SC1 [KF, Cefalothin]
- Signal-to-noise ratio (S/N) of the sandwich immunoassay [1]: < 1
- affinity to PBP2x* (in words) [2]: high affinity
- IC50 (affinity to PBP2x*) [2, 3]: 7.89 ng/mL

Compound: Cc1onc(-c2ccccc2)c1C(=O)N[C@@H]1C(=O)N2[C@@H]1SC(C)(C)[C@@H]2C(=O)O [OXA, Oxacillin]
- affinity to PBP2x* (in words) [2]: relatively poor affinity
- IC50 [2, 3]: 25.1 nM

Compound: CCN1CCN(C(=O)N[C@@H](C(=O)N[C@@H]2C(=O)N3[C@@H]2SC(C)(C)[C@@H]3C(=O)O)c2ccccc2)C(=O)C1=O [PIPC, Piperacillin]
- affinity to PBP2x* (in words) [2]: high affinity
- IC50 [2, 3]: 15 nM

Compound: CC1(C)S[C@@H]2[C@H](NC(=O)Cc3ccccc3)C(=O)N2[C@H]1C(=O)O [PNG, Penicillin G]
- Signal-to-noise ratio (S/N) of the sandwich immunoassay [1]: < 1
- affinity to PBP2x* (in words) [2]: high affinity
- IC50 [2, 3]: 10.6 nM
